This is an account of results in US9815796B2 (Merck Sharp & Dohme Corp., priority 2013, dated 2017).

Molecules are shown by their SMILES. Where only a bound is given, the exact number is not on record here.

The test deals with human PDE2A1 (Homo sapiens (Human), UniProt O00408). As to the kind of experiment: IMAP FP PDE selectivity panel, human PDE2A1. The settings on record: Human PDE2, Lab B; read-out: Human PDE2 Ki (nM) - Lab B. It is filed as biochemical. The gist of the method:
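IMAP FP format: substrate 50 nM FAM-cAMP plus 1000 nM cGMP, enzyme (insect-cell GST-tagged human PDE2A1) at ~20% conversion, 60 min reaction at room temperature. Apparent inhibition constants calculated from parallel/perpendicular fluorescence with KM 10,000 nM.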

Chain of human PDE2A1 (O00408 other isoform, or with tags, fused parts or gaps): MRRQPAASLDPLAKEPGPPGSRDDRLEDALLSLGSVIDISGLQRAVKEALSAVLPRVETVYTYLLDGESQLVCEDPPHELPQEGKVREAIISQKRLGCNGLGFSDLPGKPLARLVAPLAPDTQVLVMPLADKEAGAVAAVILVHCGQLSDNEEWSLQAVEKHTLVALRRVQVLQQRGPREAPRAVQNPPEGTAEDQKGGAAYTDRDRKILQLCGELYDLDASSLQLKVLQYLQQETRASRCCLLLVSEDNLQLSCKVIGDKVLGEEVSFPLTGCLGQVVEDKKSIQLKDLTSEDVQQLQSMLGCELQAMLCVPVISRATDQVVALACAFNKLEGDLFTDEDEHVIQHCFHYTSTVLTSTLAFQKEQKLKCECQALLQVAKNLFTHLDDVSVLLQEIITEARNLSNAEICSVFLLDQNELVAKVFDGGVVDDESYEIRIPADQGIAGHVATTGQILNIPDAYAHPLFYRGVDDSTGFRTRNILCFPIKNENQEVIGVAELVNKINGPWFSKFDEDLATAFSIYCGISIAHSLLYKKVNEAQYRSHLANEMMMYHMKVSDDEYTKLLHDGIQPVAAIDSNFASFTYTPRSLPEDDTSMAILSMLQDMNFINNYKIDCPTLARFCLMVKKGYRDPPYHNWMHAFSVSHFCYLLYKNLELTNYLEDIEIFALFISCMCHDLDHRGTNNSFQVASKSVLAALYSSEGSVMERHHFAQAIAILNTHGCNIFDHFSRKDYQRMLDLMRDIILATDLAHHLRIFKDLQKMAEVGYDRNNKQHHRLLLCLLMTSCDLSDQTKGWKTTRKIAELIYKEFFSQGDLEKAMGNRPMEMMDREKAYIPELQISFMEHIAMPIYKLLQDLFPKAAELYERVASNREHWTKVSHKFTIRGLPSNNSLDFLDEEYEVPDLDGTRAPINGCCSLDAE

For `Cc1nc(C(=O)N[C@H](C)c2ccc(C(F)F)cc2)cc(=O)[nH]1` [Example 656, N-{(1R)-1-[4-(difluoromethyl)phenyl]ethyl}-2-methyl-6-oxo-1,6-dihydropyrimidine-4-carboxamide], the Ki (as a rule, a dissociation constant, usually derived from enzyme kinetics or from competition with a known ligand) was 111 nM.

For `Cc1nc(C(=O)N[C@@H](c2ccc(C(F)F)c(F)c2)C2CC2)cc(=O)[nH]1` [Example 651, N-{(R)-cyclopropyl[4-(difluoromethyl)-3-fluorophenyl]methyl}-2-methyl-6-oxo-1,6-dihydropyrimidine-4-carboxamide], the Ki came to 109 nM. The result for `CC1([C@@H](NC(=O)c2cc(=O)[nH]c(-c3ncccn3)n2)c2ccc3c(c2)OC(F)(F)O3)CC1` [Example 585, N-[(R)-(2,2-difluoro-1,3-benzodioxol-5-yl)(1-methylcyclopropyl)methyl]-6-oxo-1,6-dihydro-2,2′-bipyrimidine-4-carboxamide] reads 39 nM. Under `CC(C)(C)[C@@H](NC(=O)c1cc(=O)[nH]c(-c2ccccc2)n1)c1ccc(CC(F)(F)F)cc1` [Example 537, N-{(1R)-2,2-dimethyl-1-[4-(2,2,2-trifluoroethyl)phenyl]propyl}-6-oxo-2-phenyl-1,6-dihydropyrimidine-4-carboxamide] stands 2.4 nM. Under `O=C(NC1(c2ccc(C(F)(F)F)cc2F)CC1)c1cc(=O)[nH]c(-c2ncccn2)n1` [Example 579, N-{1-[2-fluoro-4-(trifluoromethyl)phenyl]cyclopropyl}-6-oxo-1,6-dihydro-2,2′-bipyrimidine-4-carboxamide] stands 37 nM; under `Cc1nc(C(=O)NC(C)c2ccc(C3(C(F)(F)F)CC3)cc2)cc(=O)[nH]1` (single isomer, unassigned) [Example 687, (R)- or (S)-2-methyl-6-oxo-N-(1-(4-(1-(trifluoromethyl)cyclopropyl)phenyl)-ethyl)-1,6-dihydropyrimidine-4-carboxamide], 108 nM; under `Cc1nc(C(=O)NC(c2ccc(S(F)(F)(F)(F)F)cc2F)C(C)(C)C)cc(=O)[nH]1` (single isomer, unassigned) [Example 721, (S)- or (R)-N-(1-(2-fluoro-4-(pentafluoro-λ^6-sulfanyl)phenyl)-2,2-dimethylpropyl)-2-methyl-6-oxo-1,6-dihydropyrimidine-4-carboxamide], roughly 1220 nM. For `CC(C)(C)[C@@H](NC(=O)c1cc(=O)[nH]c(-c2ccccc2)n1)c1ccc(S(F)(F)(F)(F)F)cc1` [Example 540, N-{(1R)-2,2-dimethyl-1-[4-(pentafluoro-λ^6-sulfanyl)phenyl]propyl}-6-oxo-2-phenyl-1,6-dihydropyrimidine-4-carboxamide], the Ki is 1.6 nM. As to `Cc1nc(C(=O)NC(CO)(CO)c2ccc(C(F)(F)F)cc2)cc(=O)[nH]1` [Example 605, N-{2-hydroxy-1-(hydroxymethyl)-1-[4-(trifluoromethyl)phenyl]ethyl}-2-methyl-6-oxo-1,6-dihydropyrimidine-4-carboxamide], the inhibitory constant (Ki) was determined as 102 nM.

As for `CC(C)c1ccc([C@H](NC(=O)c2cc(=O)[nH]c(-c3ccccc3)n2)C2(C)CC2)cc1` [Example 547, N-{(R)-(1-methylcyclopropyl)[4-(1-methylethyl)phenyl]methyl}-6-oxo-2-phenyl-1,6-dihydropyrimidine-4-carboxamide], the Ki came out at 1.8 nM. On to `Cc1nc(C(=O)N[C@@H](c2ccc(OC(F)F)c(F)c2)C(C)C)cc(=O)[nH]1` [Example 624, N-{(1R)-1-[4-(difluoromethoxy)-3-fluorophenyl]-2-methylpropyl}-2-methyl-6-oxo-1,6-dihydropyrimidine-4-carboxamide], for which the inhibition constant Ki amounted to 17 nM. The result for `Cc1nc(C(=O)N[C@]2(c3ccc(C(F)(F)F)cc3)C[C@@H]2C)cc(=O)[nH]1` (single isomer, unassigned) [Example 670, 2-methyl-N-{2-methyl-1-[4-(trifluoromethyl)phenyl]cyclopropyl}-6-oxo-1,6-dihydropyrimidine-4-carboxamide] reads 28 nM. The result for `Cc1nc(C(=O)N[C@@H](c2ccc(C(F)F)cc2)C2CC2)cc(=O)[nH]1` [Example 649, N-{(1R)-cyclopropyl[4-(difluoromethyl)phenyl]methyl}-2-methyl-6-oxo-1,6-dihydropyrimidine-4-carboxamide] reads 47 nM; that for `Cc1nc(C(=O)N[C@@H](c2ccc(OC(F)F)c(F)c2)C(C)(C)C)cc(=O)[nH]1` [Example 630, N-{(1R)-1-[4-(difluoromethoxy)-3-fluorophenyl]-2,2-dimethylpropyl}-2-methyl-6-oxo-1,6-dihydropyrimidine-4-carboxamide], 5.1 nM. The result for `C[C@](CO)(NC(=O)c1cc(=O)[nH]c(-c2ccccc2)n1)c1ccc(C(F)(F)F)cc1Cl` [Example 643, N-{(1S)-1-[2-chloro-4-(trifluoromethyl)phenyl]-2-hydroxy-1-methylethyl}-6-oxo-2-phenyl-1,6-dihydropyrimidine-4-carboxamide] reads 0.5 nM; that for `CC(C)(C)[C@@H](NC(=O)c1cc(=O)[nH]c(-c2ncccn2)n1)c1ccc(OC(F)(F)F)c(F)c1` [Example 554, N-{(1R)-1-[3-fluoro-4-(trifluoromethoxy)phenyl]-2,2-dimethylpropyl}-6-oxo-1,6-dihydro-2,2′-bipyrimidine-4-carboxamide], 8.2 nM. For the compound `CC(C)(NC(=O)c1cc(=O)[nH]c(-c2ncccn2)n1)c1ccc2c(c1)OC(F)(F)O2` [Example 588, N-[1-(2,2-difluoro-1,3-benzodioxol-5-yl)-1-methylethyl]-6-oxo-1,6-dihydro-2,2′-bipyrimidine-4-carboxamide], the inhibition constant Ki came to 303 nM.

Turning to `Cc1nc(C(=O)N[C@H](C)c2ccc(C(F)F)c(F)c2)cc(=O)[nH]1` [Example 657, N-{(1R)-1-[4-(difluoromethyl)-3-fluorophenyl]ethyl}-2-methyl-6-oxo-1,6-dihydropyrimidine-4-carboxamide], the Ki worked out at 133 nM. For the compound `Cc1nc(C(=O)N[C@@H](c2ccc(OC(F)F)c(F)c2)C2(C)CC2)cc(=O)[nH]1` [Example 631, N-[(R)-[4-(difluoromethoxy)-3-fluorophenyl](1-methylcyclopropyl)methyl]-2-methyl-6-oxo-1,6-dihydropyrimidine-4-carboxamide], the Ki is 13 nM. Regarding `CC(C)(C)[C@@H](NC(=O)c1cc(=O)[nH]c(-c2ccccc2)n1)c1ccc(C2CC2)cc1` [Example 536, N-[(1R)-1-(4-cyclopropylphenyl)-2,2-dimethylpropyl]-6-oxo-2-phenyl-1,6-dihydropyrimidine-4-carboxamide], the Ki was found to be 0.51 nM.

On to `Cc1nc(C(=O)N[C@@H](c2ccc(C(F)F)c(F)c2)C(C)(C)C)cc(=O)[nH]1` [Example 646, N-{(1R)-1-[4-(difluoromethyl)-3-fluorophenyl]-2,2-dimethylpropyl}-2-methyl-6-oxo-1,6-dihydropyrimidine-4-carboxamide], for which the Ki amounted to 15 nM. The result for `CC(C)(C)[C@@H](NC(=O)c1cc(=O)[nH]c(-c2ncccn2)n1)c1ccc(SC(F)(F)F)cc1` [Example 555, N-[(1R)-2,2-dimethyl-1-{4-[(trifluoromethyl)sulfanyl]phenyl}propyl]-6-oxo-1,6-dihydro-2,2′-bipyrimidine-4-carboxamide] reads 4.5 nM; that for `Cc1nc(C(=O)NC(C)c2ccc(C3(C(F)(F)F)CC3)cc2)cc(=O)[nH]1` (single isomer, unassigned) [Example 686, (S)- or (R)-2-methyl-6-oxo-N-(1-(4-(1-(trifluoromethyl)cyclopropyl)phenyl)-ethyl)-1,6-dihydropyrimidine-4-carboxamide], greater than 2960 nM; that for `CCC(C)(NC(=O)c1cc(=O)[nH]c(C)n1)c1ccc(C(F)(F)F)cc1` (single isomer, unassigned) [Example 669, (R)- or (S)-2-methyl-N-{1-methyl-1-[4-(trifluoromethyl)phenyl]propyl}-6-oxo-1,6-dihydropyrimidine-4-carboxamide], 15 nM. The result for `Cc1nc(C(=O)N[C@H](C)c2ccc(S(F)(F)(F)(F)F)cc2F)cc(=O)[nH]1` [Example 673, N-(1-(2-fluoro-4-(pentafluorothio)phenyl)ethyl)-2-methyl-6-oxo-1,6-dihydropyrimidine-4-carboxamide] reads 32 nM.

On to `Cc1nc(C(=O)NC2(c3ccc(C(F)(F)F)cc3F)CC2)cc(=O)[nH]1` [Example 625, N-{1-[2-fluoro-4-(trifluoromethyl)phenyl]cyclopropyl}-2-methyl-6-oxo-1,6-dihydropyrimidine-4-carboxamide], for which the inhibitory constant (Ki) turned out to be 51 nM.

In the case of `CC(C)(C)[C@@H](NC(=O)c1cc(=O)[nH]c(-c2ncccn2)n1)c1ccc(C2CC2)cc1` [Example 557, N-[(1R)-1-(4-cyclopropylphenyl)-2,2-dimethylpropyl]-6-oxo-1,6-dihydro-2,2′-bipyrimidine-4-carboxamide], the Ki came out at 8.9 nM. The result for `Cc1nc(C(=O)N[C@@H](c2ccc3c(c2)OC(F)(F)O3)C(C)C)cc(=O)[nH]1` [Example 607, N-[(1R)-1-(2,2-difluoro-1,3-benzodioxol-5-yl)-2-methylpropyl]-2-methyl-6-oxo-1,6-dihydropyrimidine-4-carboxamide] reads 48 nM; that for `Cc1nc(C(=O)N[C@@H](c2ccc(C(F)F)c(F)c2)C(C)C)cc(=O)[nH]1` [Example 650, N-{(1R)-1-[4-(difluoromethyl)-3-fluorophenyl]-2-methylpropyl}-2-methyl-6-oxo-1,6-dihydropyrimidine-4-carboxamide], 33 nM; that for `Cc1nc(C(=O)N[C@H](C)c2ccc3c(c2)OC(F)(F)O3)cc(=O)[nH]1` [Example 606, N-[(1R)-1-(2,2-difluoro-1,3-benzodioxol-5-yl)ethyl]-2-methyl-6-oxo-1,6-dihydropyrimidine-4-carboxamide], 237 nM. The result for `CC(C)(NC(=O)c1cc(=O)[nH]c(-c2ncccn2)n1)c1ccc(C(F)(F)F)cc1Cl` [Example 568, N-{1-[2-chloro-4-(trifluoromethyl)phenyl]-1-methylethyl}-6-oxo-1,6-dihydro-2,2′-bipyrimidine-4-carboxamide] reads 96 nM.
